# System: LLC1 tumors in WT mice
# Assay: LLC1 tumor model in WT mice
# Format: in vivo
# Protocol: FIG. 5: Usp22 inhibitor administration enhances antitumor immunity. A, Structure of compound CS30 (Usp22i-S02). B, FOXP3 MFI in WT and 22KO of Treg cells after treatment with 20 μg/kg of Usp22i-S02 in vivo (n=3). C, Representative flow cytometry plot of FOXP3+CD25+MFI of CD4+ peripheral cells of mice treated with 20 μg/kg of Usp22i-S 02 relative to control (n=5). D, Graphical representation of Foxp3 MFI upon Usp22i-S02 administration (n=5). E, Tumor growth curve of LLC1 cells subcutaneously injected in the flank of WT mice with or without the addition of 20 mg/kg/time of the Usp22 inhibitor starting at day 15, in 100 μL of oil (n=4). F-G, Representative flow cytometry plot and graphical representation of % infiltration of CD4+ and CD8+ T cells within the tumor (n=4). H, Representative histogram plot and graphical representation of intratumoral Treg (itTreg) Foxp3 MFI (n=4). I, MFI of itTreg suppressive markers (n=3-4). J, Percent Foxp3+IFNg+itTreg cells in control and Usp22-S02 treated mice (n=3-4). B, D-E, G, H-I Two-way ANOVA with multiple comparisons between rows was performed to determine statistical significance. J, Unpaired two tailed T test was performed to determine significance. All data are presented as mean±stdev. NS, not significant. *P<0.05, **P<0.01, ***P<0.001, ****P<0.0001.
# FIG. 7: Usp22i-S02 has little effect on naïve mice, yet enhances anti-tumor immunity in LLC1-challenged mice. A, Body weight of Usp22i-S02 treated mice verses DMSO treated controls over the course of treatment (n=4). A-F. Injections were twice a day for 3 consecutive days at 10 μg/kg (n=4). B, Percent of cell populations in naïve mice treated with Usp22i-S02 relative to DMSO control (n=3-4). C, Percent of KI-67+ cells in various compartments in naïve mice treated with Usp22i-S02 relative to DMSO control (n=3-4). D, Percent CD44^hiCD62L^lo in T cell populations gated on CD45+ cells in naïve mice treated with Usp22i-S02 relative to DMSO control (n=3). E, Percent Annexin+PI+ T cells gates on CD45+ cells in naïve mice treated with Usp22i-S02 relative to DMSO control (n=4). F-H, Organ toxicity panel (VetScan VS2 Comprehensive Diagnostic Rotor lot 1061AA2) of naïve mice treated with Usp22i-S02 relative to DMSO control (n=2-3). I, Growth curve of subcutaneously injected LLC1 in WT mice treated with Usp22i-S02 at 10 μg/kg (n=5-10). I-Q, Injections were twice a day for 5 consecutive days at 10 μg/kg. J, Weights of resected tumors at day 16 from I (n=10). K-L, Representative flow plot and graphical representation of infiltrating T cells gated on CD45+ cells (n=5). M-P, Characterization of intratumoral CD8+ T cells frome mice treated with Usp22i-S02 (n=3-5). Q, Percent of intratumoral Treg cells from mice treated with Usp22i-S02 verses DMSO control, gated on CD4+Foxp3+ from mice (n=5). A-E, I and L, Two-way ANOVA with Sidaks's multiple comparisons between rows relative to control was performed to determine statistical significance. F-H, J, and M-Q, Two-tailed unpaired t-test was performed to determine statistical significance. All data are presented as mean±stdev. NS, not significant. *P<0.05, **P<0.01, ***P<0.001, ****P<0.0001.
# To determine the functionality of Usp22i-S02 as a potential therapeutic, we tested the inhibitor on established tumors. […] Further analysis of tumor infiltrating lymphocytes was done on mice treated immediately following tumor implantation (FIG. 7I).
# LLC1 cells were transplanted into 6-to-8-week-old C57BL/6 male mice. Subcutaneous injections were performed in the right flank of mice in a final volume of 100 μL using […] per injection. The USP22i-S02 was injected intraperitoneally (i.p) at a concentration of 20 mg/kg/time, in 100 μL of oil, twice a day for 5 days beginning on the day of the LLC1 cells injection. Control animals received 100 μL of oil alone. Subcutaneous tumor diameters were measured daily with calipers until any tumor in the mouse cohort reached 2.5 cm in its largest diameter.
smiles,measurement,setting,value
"N#Cc1c2c(c(Nc3ccccc3)n3c1nc1ccccc13)CCCC2 [USP22i-S02, 11-anilino-7,8,9,10-tetrahydrobenzimidazo[1,2-b]isoquinoline-6-carbonitrile]",tumor growth of established LLC1 tumors,"WT mice, 20 mg/kg/time starting at day 15",striking tumor rejection
same,itTreg GITR and PD-1 levels,established LLC1 tumors,lower levels of GITR and PD-1
same,itTreg IFN-γ levels,established LLC1 tumors,significantly higher levels of IFN-γ
same,Teff cell tumor infiltration,"established LLC1 tumors, WT mice",significant increase in Teff cell tumor infiltration
same,intratumoral Foxp3+ Treg percentage,"established LLC1 tumors, not splenic",significantly decreased
same,intratumoral CD8+ T cell phenotype,treated immediately following tumor implantation,less exhausted phenotype
same,intratumoral Foxp3+ Treg percentage,treated immediately following tumor implantation (FIG. 7Q),significantly decreased
same,tumor burden,"treated immediately following tumor implantation, twice a day for 5 days at 10 μg/kg",decreased tumor burden

# Reference: patent US12624031B2, “Inhibitors of ubiquitin specific peptidase 22 (USP22) and uses thereof for treating diseases and disorders” (Northwestern University, priority 2022, dated 2026)
